In patent US20060069132A1, “Azolecarboxamide herbicides” (priority 2004, published 2006):

Key:
barnyardgrass [1] = experiment: Test B flooded paddy test; format: in vivo, Echinochloa crus-galli; settings: 1000 g ai/ha, scale 0 to 100 (0 no effect, 100 complete control)
Method in brief: (§1)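 Visual ratings, 0 (no effect) to 100 (complete control), made versus controls after 13–15 d greenhouse. Paddy plants treated at 2-leaf stage; postemergence plants at 1- to 4-leaf stage, 2–18 cm tall.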

lambsquarters = experiment: Test B pre-/postemergence herbicide test; format: in vivo, Chenopodium album; settings: for Lambsquarters plant response rating: postemergence
Method in brief: (§2)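 Visual rating, 0 (no effect) to 100 (complete control), versus untreated controls after 13–15 d in greenhouse. Pre- and postemergence applications (postemergence plants 2–18 cm, 1–4 leaves); flooded paddy arm at 2-leaf stage. Compounds in non-phytotoxic solvent plus surfactant.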

[2] = tested on: small flower umbrella sedge; experiment: Test B flooded paddy test; format: in vivo, Cyperus difformis; settings: 1000 g ai/ha, scale 0 to 100 (0 no effect, 100 complete control)
Method in brief: as §1

corn = experiment: Test B pre-/postemergence herbicide test; format: in vivo, Zea mays; settings: for Corn plant response rating: postemergence
Method in brief: as §2

cocklebur = experiment: Test B pre-/postemergence herbicide test; format: in vivo, Xanthium strumarium; settings: for Cocklebur plant response rating: postemergence
Method in brief: as §2

large crabgrass [3] = experiment: Test A pre-/postemergence herbicide test; format: in vivo, Digitaria sanguinalis
Method in brief: (§3)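 Both application timings were run together: directed soil spray over freshly planted seeds in sandy loam, and runoff spray onto 2–10 cm seedlings. Evaluation after ~10 days in greenhouse used a 0–100 visual scale versus untreated controls.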

morningglory [4] = experiment: Test B pre-/postemergence herbicide test; format: in vivo, Ipomoea coccinea; settings: for Morningglory plant response rating: postemergence
Method in brief: as §2

giant foxtail [5] = experiment: Test A pre-/postemergence herbicide test; format: in vivo, Setaria faberi
Method in brief: as §3

morningglory [6] = experiment: Test A pre-/postemergence herbicide test; format: in vivo, Ipomoea spp.
Method in brief: as §3

blackgrass = experiment: Test B postemergence herbicide test; format: in vivo, Alopecurus myosuroides; settings: postemergence
Method in brief: as §1

giant foxtail [7] = experiment: Test B pre-/postemergence herbicide test; format: in vivo, Setaria faberi; settings: for Foxtail, Giant plant response rating: postemergence
Method in brief: as §2

ducksalad = experiment: Test B flooded paddy test; format: in vivo, Heteranthera limosa; settings: 1000 g ai/ha, scale 0 to 100 (0 no effect, 100 complete control)
Method in brief: as §1

wheat = experiment: Test B postemergence herbicide test; format: in vivo, Triticum aestivum; parameters: key to Wheat plant response rating: 0 = no effect, 100 = complete control; settings: postemergence
Method in brief: (§4)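 Treated at 2-leaf (paddy) or 1–4-leaf, 2–18 cm (postemergence); greenhouse 13–15 d; visual score vs control, 0 none to 100 complete control; dash = not tested.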

barnyardgrass [8] = experiment: Test A pre-/postemergence herbicide test; format: in vivo, Echinochloa crus-galli
Method in brief: as §3

rice [9] = experiment: Test B flooded paddy test; format: in vivo, Oryza sativa; settings: 1000 g ai/ha, scale 0 to 100 (0 no effect, 100 complete control)
Method in brief: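 Read-out: visual comparison with controls, scored 0 to 100, where 100 means complete control and 0 no effect. Formulated chemicals were applied postemergence to plants 2–18 cm tall (1- to 4-leaf), or to flooded-paddy plants at the 2-leaf stage, then held 13 to 15 days under glass.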

velvetleaf [10] = experiment: Test B pre-/postemergence herbicide test; format: in vivo, Abutilon theophrasti; settings: for Velvetleaf plant response rating: postemergence
Method in brief: as §2

large crabgrass [11] = experiment: Test B pre-/postemergence herbicide test; format: in vivo, Digitaria sanguinalis; settings: for Crabgrass, Large plant response rating: postemergence
Method in brief: as §2

barnyardgrass [12] = experiment: Test B pre-/postemergence herbicide test; format: in vivo, Echinochloa crus-galli; settings: for Barnyardgrass plant response rating: postemergence
Method in brief: as §2

velvetleaf [13] = experiment: Test A pre-/postemergence herbicide test; format: in vivo, Abutilon theophrasti
Method in brief: as §3

rice [14] = experiment: Test B pre-/postemergence herbicide test; format: in vivo, Oryza sativa; settings: preemergence
Method in brief: as §2

Surinam grass = experiment: Test B pre-/postemergence herbicide test; format: in vivo, Urochloa decumbens; settings: for Surinam Grass plant response rating: postemergence
Method in brief: as §2

redroot pigweed = experiment: Test A pre-/postemergence herbicide test; format: in vivo, Amaranthus retroflexus
Method in brief: as §3

wild oat = experiment: Test B postemergence herbicide test; format: in vivo, Avena fatua; settings: postemergence
Method in brief: as §4

pigweed = experiment: Test B pre-/postemergence herbicide test; format: in vivo, Amaranthus retroflexus; settings: for Pigweed plant response rating: postemergence
Method in brief: as §2

[15] = 125 g ai/ha, 0 is no effect, 100 is complete control, preemergence
[16] = 125 g ai/ha, visual rating, scale 0 (no effect) to 100 (complete control)
[17] = 500 g ai/ha, visual rating, 0 = no effect, 100 = complete control, preemergence
[18] = 500 g ai/ha, scale 0 to 100, 0 is no effect, 100 is complete control
[19] = Postemergence, 500 g ai/ha, 0 to 100 scale, 0 no effect, 100 complete control
[20] = Postemergence, 2000 g ai/ha, 0 to 100 scale, 0 no effect, 100 complete control
[21] = Preemergence, 2000 g ai/ha, visual rating, 0 to 100 scale (0 no effect, 100 complete control)
[22] = preemergence, 500 g ai/ha, visual injury, 0 to 100 scale (0 no effect, 100 complete control)

C#CCNC(=O)c1cccc(NC(=O)c2cc(C(C)(C)C)nn2C)n1 [Compound 316]
Barnyardgrass plant response rating (barnyardgrass [1]): 0
Plant response rating (0 to 100 scale), Lambsquarters (lambsquarters; [15]): 0
Lambsquarters plant response rating (lambsquarters; [16]): 40
Plant response rating, Lambsquarters (lambsquarters; [17]): 60
Lambsquarters plant response rating (lambsquarters; [18]): 70
Sedge, Umbrella plant response rating [2]: 0
Plant response rating (0 to 100 scale), Corn (corn; [15]): 0
Corn plant response rating (corn; [16]): 10
Plant response rating, Corn (corn; [17]): 0
Corn plant response rating (corn; [18]): 20
Plant response rating (0 to 100 scale), Cocklebur (cocklebur; [15]): 0
Cocklebur plant response rating (cocklebur; [16]): 0
Plant response rating, Cocklebur (cocklebur; [17]): 0
Cocklebur plant response rating (cocklebur; [18]): 20
Crabgrass, Large plant response rating (large crabgrass [3]; [19]): 25
Plant response rating, Crabgrass, Large (large crabgrass [3]; [20]): 45
Crabgrass, Large plant response rating (large crabgrass [3]; [21]): 35
Crabgrass, Large plant response rating (large crabgrass [3]; [22]): 10
Plant response rating (0 to 100 scale), Morningglory (morningglory [4]; [15]): 0
Morningglory plant response rating (morningglory [4]; [16]): 10
Plant response rating, Morningglory (morningglory [4]; [17]): 0
Morningglory plant response rating (morningglory [4]; [18]): 10
Foxtail, Giant plant response rating (giant foxtail [5]; [19]): 20
Plant response rating, Foxtail, Giant (giant foxtail [5]; [20]): 30
Foxtail, Giant plant response rating (giant foxtail [5]; [21]): 0
Foxtail, Giant plant response rating (giant foxtail [5]; [22]): 0
Morningglory plant response rating (morningglory [6]; [19]): 20
Plant response rating, Morningglory (morningglory [6]; [20]): 30
Morningglory plant response rating (morningglory [6]; [21]): 0
Morningglory plant response rating (morningglory [6]; [22]): 0
Blackgrass plant response rating (blackgrass; [16]): 0
Blackgrass plant response rating (blackgrass; [18]): 0
Plant response rating (0 to 100 scale), Foxtail, Giant (giant foxtail [7]; [15]): 0
Foxtail, Giant plant response rating (giant foxtail [7]; [16]): 0
Plant response rating, Foxtail, Giant (giant foxtail [7]; [17]): 0
Foxtail, Giant plant response rating (giant foxtail [7]; [18]): 20
Ducksalad plant response rating (ducksalad): 0
Wheat plant response rating (wheat; [16]): 0
Wheat plant response rating (wheat; [18]): 0
Barnyardgrass plant response rating (barnyardgrass [8]; [19]): 20
Plant response rating, Barnyardgrass (barnyardgrass [8]; [20]): 45
Barnyardgrass plant response rating (barnyardgrass [8]; [21]): 10
Barnyardgrass plant response rating (barnyardgrass [8]; [22]): 0
Rice plant response rating (rice [9]): 0
Plant response rating (0 to 100 scale), Velvetleaf (velvetleaf [10]; [15]): 0
Velvetleaf plant response rating (velvetleaf [10]; [16]): 0
Plant response rating, Velvetleaf (velvetleaf [10]; [17]): 20
Velvetleaf plant response rating (velvetleaf [10]; [18]): 40
Plant response rating (0 to 100 scale), Crabgrass, Large (large crabgrass [11]; [15]): 0
Crabgrass, Large plant response rating (large crabgrass [11]; [16]): 10
Plant response rating, Crabgrass, Large (large crabgrass [11]; [17]): 20
Crabgrass, Large plant response rating (large crabgrass [11]; [18]): 10
Plant response rating (0 to 100 scale), Barnyardgrass (barnyardgrass [12]; [15]): 0
Barnyardgrass plant response rating (barnyardgrass [12]; [16]): 0
Plant response rating, Barnyardgrass (barnyardgrass [12]; [17]): 0
Barnyardgrass plant response rating (barnyardgrass [12]; [18]): 40
Velvetleaf plant response rating (velvetleaf [13]; [19]): 15
Plant response rating, Velvetleaf (velvetleaf [13]; [20]): 20
Velvetleaf plant response rating (velvetleaf [13]; [21]): 15
Velvetleaf plant response rating (velvetleaf [13]; [22]): 5
Plant response rating (0 to 100 scale), Rice (rice [14]; 125 g ai/ha, 0 is no effect, 100 is complete control): 0
Plant response rating, Rice (rice [14]; 500 g ai/ha, visual rating, 0 = no effect, 100 = complete control): 0
Plant response rating (0 to 100 scale), Surinam Grass (Surinam grass; [15]): 0
Surinam Grass plant response rating (Surinam grass; [16]): 10
Plant response rating, Surinam Grass (Surinam grass; [17]): 0
Surinam Grass plant response rating (Surinam grass; [18]): 10
Pigweed plant response rating (redroot pigweed; [19]): 25
Plant response rating, Pigweed (redroot pigweed; [20]): 80
Pigweed plant response rating (redroot pigweed; [21]): 65
Pigweed plant response rating (redroot pigweed; [22]): 0
Oat, Wild plant response rating (wild oat; [16]): 0
Oat, Wild plant response rating (wild oat; [18]): 20
Plant response rating (0 to 100 scale), Pigweed (pigweed; [15]): 0
Pigweed plant response rating (pigweed; [16]): 10
Plant response rating, Pigweed (pigweed; [17]): 90
Pigweed plant response rating (pigweed; [18]): 50
